Values joined by “and” are separate entries in the source; they are usually repeats but may differ in a detail not shown here. Identical values can stand only once. Like-named read-outs stand apart in the source and are kept apart here. Values belong to the compound of their own block, whether it stands above or below them.
What was measured:
[1] = tested on: Escherichia coli ATCC 25922; assay: In vitro photodynamic inactivation of planktonic cells, 470 nm LED; assay type: cell-based
Method: (§1) In the first experiment, the main goal was to determine whether the tested compounds were antimicrobially active with or without light. Two compounds (2 and 3) were tested in the visible range, and a 470 nm LED lamp was applied (Figure 11). Due to poor solubility and low absorption, curcumin was not included in the tests. A screening study was carried out on three strains: Gram-positive bacteria—Staphylococcus aureus NCTC 4163, Gram-negative bacteria—Escherichia coli ATCC 25922, and the yeast Candida albicans ATCC 10231. In the study, the irradiation lasted 30 min, and the lamp was placed 10 mm above the microtiter plate containing the bacterial suspensions and tested compounds at concentrations of 10 μM. The preincubation time (PIT) lasted 20 min, and the LED lamp emitted visible light (λmax 470 nm) with an irradiance of 16.67 mW/cm^2, which corresponds to a light dose (fluence) of 30.01 J/cm^2 after 30 min of exposure. The light exposure conditions (lamp distance, lamp power, and lamp type) were the same in all subsequent experiments. The light dose depended on the irradiation time. […] Compound 3 presented activity against both G+ (S. aureus) and G− (E. coli) bacteria. The light-induced antimicrobial activity against S. aureus and E.coli exceeded log reductions of 5.54 and 4.46, respectively. At these concentrations, not even a single colony was observed on the plates, as complete eradication occurred.
(§2) The second experiment was designed to determine the time and concentration required to achieve the biological effect observed in the first experiment and to extend the study to other strains (Figure 12). Apart from S. aureus and E. coli, the Gram-positive Streptococcus pyogenes ATCC 19615, which is the etiologic agent of tonsillitis, and the Gram-negative Pseudomonas aeruginosa NCTC 6749, which is a major threat to hospitalized and immunocompromised patients due to its high antibiotic resistance, were used. The observed effect was strictly concentration-dependent (Table 6). According to the results, Gram-positive bacteria appear to be the most susceptible to the applied photocytotoxicity study. […] For S. pyogenes, the results were even more pronounced, as the complete eradication under the influence of compound 3 at a concentration of 10 µM occurred after only 5 min of irradiation, while at a concentration of 1 µM, complete eradication occurred after 15 min of irradiation. Interesting results were also obtained for Gram-negative bacteria. […] A high level of eradication of P. aeruginosa in the presence of compound 3 (10 µM) was observed after only 5 min of irradiation (log reduction: 4.29). […] Reductions in microbial survival were still observed with a decrease in compound concentration, but complete eradication was not achieved within the irradiation time.
(§3) The microorganisms used in the study were (i) standard strains of bacteria: Staphylococcus aureus NCTC 4163, Escherichia coli ATCC 25922, Pseudomonas aeruginosa NCTC 6749, and Streptococcus […] ATCC 19615, and (ii) fungi: Candida albicans ATCC 10231. The standard strains were obtained from the National Collection of Type Cultures (NCTC, Salisbury, UK) and the American Type Culture Collection (ATCC, Manassas, VA, USA). Bacterial and yeast strains were stored in Microbank cryogenic vials (Pro-Lab Diagnostics, Richmond Hill, ON, Canada) at −70 °C ± 10 °C. The bacteria were cultured aerobically in brain–heart infusion (BHI) broth (OXOID, Basingstoke, UK) at 36 °C ± 1 °C for 20 h. C. albicans cultures were grown in Sabouraud dextrose broth (SDB, Merck, Steinheim, Germany) at 36 °C for 20 h.
(§4) The organisms were harvested by centrifugation (3000× g for 15 min) and resuspended in 1.5 mL of 10 mM PBS, pH, 7.0 (Sigma-Aldrich, St. Louis, MO, USA). The cells were then diluted 1/100 in PBS to a final concentration of about 10^7 colony-forming units (CFUs)/mL. […]

[2] = tested on: Staphylococcus aureus NCTC 4163; assay: as above; assay type: cell-based
Method: as §1, §2, §3, §4

[3] = tested on: Candida albicans ATCC 10231; assay: as above; assay type: cell-based; conditions: 10 µM
Method: as §1
The microorganisms used in the study were (i) standard strains of bacteria: Staphylococcus aureus NCTC 4163, Escherichia coli ATCC 25922, Pseudomonas aeruginosa NCTC 6749, and Streptococcus […] ATCC 19615, and (ii) fungi: Candida albicans ATCC 10231. The standard strains were obtained from the National Collection of Type Cultures (NCTC, Salisbury, UK) and the American Type Culture Collection (ATCC, Manassas, VA, USA). […]
The organisms were harvested by centrifugation (3000× g for 15 min) and resuspended in 1.5 mL of 10 mM PBS, pH, 7.0 (Sigma-Aldrich, St. Louis, MO, USA). […] Viable microorganisms were measured by counting the number of colony-forming units (CFUs) after appropriate serial dilution and culture on tryptic soy agar plates (TSA, OXOID, Basingstoke, UK) or Columbia Blood Agar with Sheep Blood (CAS, OXOID, Basingstoke, UK) for bacteria and Sabouraud dextrose agar (SDA, Merck, Steinheim, Germany) for fungi, following incubation at 36 °C ± 1 °C for 24–72 h. The number of surviving organisms and the log10 reduction in microbial cells for each sample were calculated using a formula available in the literature.
Lamp type—LED λmax~470 nm (LIU470A LED Array Light Source; Thorlabs Inc., Bergkirchen, Germany); irradiance—16.67 mW/cm^2 (measured with PM16-130 Power Meter, Thorlabs Inc., Bergkirchen, Germany, and Optel Opole Sp. z o.o., Opole, Poland).

[4] = tested on: C. albicans; parameters: method as in PMID 22934533; conditions: 80 µM curcumin, 37.5 J/cm^2; mouse model of oral candidiasis; cited from earlier work
[5] = tested on: MRC-5 fibroblasts; parameters: method as in Lazewski et al. 32; conditions: ref Lazewski et al. 32, cited from earlier work
[6] = tested on: WM266-4 melanoma cell line; parameters: method as in Siwak et al. 49; conditions: after 96 h of incubation; ref Siwak et al. 49; cited from earlier work
[7] = L+P+, 10 µM, 470 nm, 30 min, 30.01 J/cm^2
[8] = L+P+, 470 nm, 30 min, 30.01 J/cm^2
[9] = 1 µM, 15 min irradiation 470 nm
[10] = 10 µM, 15 min irradiation 470 nm (15 J/cm^2)

melting point: 170 to 173 °C
Compound: F[B-]1(F)OC(/C=C/c2ccc(OCCN3CCOCC3)cc2)=CC(/C=C/c2ccc(OCCN3CCOCC3)cc2)=[O+]1 [Compound 2]
Log10 reduction ([1]; L−P+ (no light), 10 µM): 0.52 log
Log10 reduction [2, 7]: 2.13 log
Log10 reduction ([2]; L−P+ (no light), 10 µM): 0.05 log
Log10 reduction [3, 8]: 0.01 log
Log10 reduction ([3]; L−P+ (no light)): 0.04 log

Compound: C[N+]1(CCOc2ccc(C=CC3=CC(C=Cc4ccc(OCC[N+]5(C)CCOCC5)cc4)=[O+][B-](F)(F)O3)cc2)CCOCC1 [Compound 3]
Log Red. ([1]; 1 µM, 5 min irradiation 470 nm): 0.83 log
biological activity after irradiation ([1]; 1 µM, 470 nm LED): no biological activity
Log Red. [1, 9]: 1.57 log
Log Red. ([1]; 1 µM, 25 min irradiation 470 nm): 1.82 log
Log Red. ([1]; 10 µM, 5 min irradiation 470 nm): 1.15 log
Log Red. [1, 10]: 3.08 log
Log Red. ([1]; 10 µM, 25 min irradiation 470 nm (25 J/cm^2)): 4.53 log
Log10 reduction [1, 7]: >4.46 log
Log10 reduction ([1]; L−P+ (no light), 10 µM): 0.58 log
Log Red. ([2]; 1 µM, 5 min irradiation 470 nm): −0.01 log
Log Red. ([2]; 1 µM, 10 min irradiation 470 nm): 0.77 log
Log Red. [2, 9]: 1.01 log
Log Red. ([2]; 1 µM, 20 min irradiation 470 nm): 1.42 log
Log Red. ([2]; 10 µM, 5 min irradiation 470 nm (5 J/cm^2)): 3.37 log
irradiation time to complete eradication ([2]; 10 µM, 470 nm LED): 15 min
Log Red. ([2]; 10 µM, 10 min irradiation 470 nm): 4.09 log
Log Red. [2, 10]: >5.40 log and >5.4 log
Log10 reduction [2, 7]: >5.54 log
Log10 reduction ([2]; L−P+ (no light), 10 µM): −0.01 log
Log10 reduction [3, 8]: −0.04 log
Log10 reduction ([3]; L−P+ (no light)): −0.09 log

Compound: Curcumin [reference compound]
reduction in the survival of C. albicans [4]: 4 log
IC50 ([5]; after 24 h): 70.4 ± 12.5 µM
IC50 ([5]; after 48 h): 45.3 ± 3.18 µM
IC50 [6]: ~7 µM

Source: article PMC11478334, “Quaternized Curcumin Derivative—Synthesis, Physicochemical Characteristics, and Photocytotoxicity, Including Antibacterial Activity after Irradiation with Blue Light” (Molecules, 2024)
